# Earlier results in patent publication US10316053B2, “Flavonoid compounds and uses thereof” (ARMARON BIO PTY LTD, priority 2012, dated 2019).
# Tested on: myocardial ischaemia and reperfusion
# Details: in vitro studies; Wang et al., Br J Pharmacol (2004) 142, 443-452
compound,measurement,value
"O=c1c(O)c(-c2ccc(O)c(O)c2)oc2ccccc12 [DiOHF, 3′,4′-dihydroxy flavonol]",infarct and injury associated with myocardial ischaemia and reperfusion,reduce infarct and injury
